Measured values as given in PubChem BioAssay AID270 (DTP/NCI, 2004).
Several values for one entry are separate records, joined by “and”; a condition that tells them apart may be missing. Equal entries are not always repeated. Records with an inconclusive call do not appear. *1 amine or outer side, *2 acyl side, *3 side chain or, on linkers, in order; H or OH if unused. Where a SMILES comes first, the peptide text is derived from it. Bridges are numbered along the chain shown (N, C = ends). Roman numbers before positions name the chains, in order. [ ]: non-standard residue; d: D form. Actinocin(1to9) = Cc1c2oc3c(C)ccc(C(=O)[*:2])c3nc-2c(C(=O)[*:1])c(N)c1=O; NMeV = CN[CH](C(=O)O)C(C)C; Sar = CNCC(=O)O

System: BDF1 mice, s.c. Lewis lung carcinoma, T/C %
Experiment: NCI In Vivo Anticancer Drug Screen. Data for tumor model Lewis Lung Carcinoma (subcutaneous) in B6D2F1 (BDF1) mice
Method in brief: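 Readout: survival or tumor size, expressed as treated (T) over vehicle control (C). Transplantable tumor implanted in mice; compound given to the treated group.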

[1] = endpoint: mean tumor weight, dose: 0.25 mg/kg/injection, schedule: Q01DX011 (ip), vehicle: saline, higher = larger tumour
[2] = endpoint: median survival time, dose: 1.25 mg/kg/injection, schedule: Q01DX009 (ip), vehicle: saline, higher = longer survival
[3] = endpoint: median survival time, dose: 2.5 mg/kg/injection, schedule: Q01DX009 (ip), vehicle: saline, higher = longer survival

C=C1C(=O)OC2CC1C(O)C/C(C)=C/CC/C(C)=C/C(O)CC2C (stereo unspecified)
T/C (endpoint: median survival time, dose: 1.56 mg/kg/injection, schedule: Q01DX009 (ip), vehicle: Klucel (hydroxypropylcellulose) (HPC), higher = longer survival): 90 % of control
T/C (endpoint: median survival time, dose: 3.12 mg/kg/injection, schedule: Q01DX009 (ip), vehicle: Klucel (hydroxypropylcellulose) (HPC), higher = longer survival): 108 % of control
T/C (endpoint: median survival time, dose: 6.25 mg/kg/injection, schedule: Q01DX009 (ip), vehicle: Klucel (hydroxypropylcellulose) (HPC), higher = longer survival): 93 % of control
T/C (endpoint: median survival time, dose: 12.5 mg/kg/injection, schedule: Q01DX009 (ip), vehicle: Klucel (hydroxypropylcellulose) (HPC), higher = longer survival): 92 % of control
T/C (endpoint: median survival time, dose: 25.0 mg/kg/injection, schedule: Q01DX009 (ip), vehicle: Klucel (hydroxypropylcellulose) (HPC), higher = longer survival): 99 % of control

CC(C)CCCCCCCCCCCCC(=O)NCC(=O)NC1C(O)C(O)C(Nc2ncnc3nc[nH]c23)OC1C(O)CO (stereo unspecified)
T/C [1]: 69 % of control
T/C (endpoint: mean tumor weight, dose: 0.5 mg/kg/injection, schedule: Q01DX011 (ip), vehicle: saline, higher = larger tumour): 54 % of control
T/C (endpoint: mean tumor weight, dose: 1.0 mg/kg/injection, schedule: Q01DX011 (ip), vehicle: saline, higher = larger tumour): 100 % of control

Cc1ccc(NC(=O)c2ccccc2)cc1[As]=[As]c1cc(NC(=O)c2ccccc2)ccc1C (stereo unspecified)
T/C (endpoint: median survival time, dose: 0.63 mg/kg/injection, schedule: Q01DX009 (ip), vehicle: Klucel (hydroxypropylcellulose) (HPC), higher = longer survival): 100 % of control
T/C (endpoint: median survival time, dose: 1.25 mg/kg/injection, schedule: Q01DX009 (ip), vehicle: Klucel (hydroxypropylcellulose) (HPC), higher = longer survival): 100 % of control

COc1cc2c(c(OC)c1OC)-c1ccc(OC)c(=O)cc1[C@@H](NC(C)=O)CC2
T/C (endpoint: mean tumor weight, dose: 0.06 mg/kg/injection, schedule: Q01DX011 (ip), vehicle: saline, higher = larger tumour): 65 % of control
T/C (endpoint: mean tumor weight, dose: 0.12 mg/kg/injection, schedule: Q01DX011 (ip), vehicle: saline, higher = larger tumour): 61 % of control
T/C [1]: 46 % of control
T/C (endpoint: median survival time, dose: 0.13 mg/kg/injection, schedule: Q01DX009 (ip), vehicle: saline, higher = longer survival): 100 % of control
T/C (endpoint: median survival time, dose: 0.25 mg/kg/injection, schedule: Q01DX009 (ip), vehicle: saline, higher = longer survival): 98 % of control
T/C (endpoint: median survival time, dose: 0.5 mg/kg/injection, schedule: Q01DX009 (ip), vehicle: saline, higher = longer survival): 99 % of control
T/C (endpoint: median survival time, dose: 63.0 micrograms/kg/injection, schedule: Q01DX009 (ip), vehicle: saline, higher = longer survival): 103 % of control
T/C (endpoint: median survival time, dose: 125.0 micrograms/kg/injection, schedule: Q01DX009 (ip), vehicle: saline, higher = longer survival): 106 % of control
T/C (endpoint: median survival time, dose: 250.0 micrograms/kg/injection, schedule: Q01DX009 (ip), vehicle: saline, higher = longer survival): 108 % of control
T/C (endpoint: median survival time, dose: 500.0 micrograms/kg/injection, schedule: Q01DX009 (ip), vehicle: saline, higher = longer survival): 108 % of control
T/C (endpoint: median survival time, dose: 1000.0 micrograms/kg/injection, schedule: Q01DX009 (ip), vehicle: saline, higher = longer survival): 91 % of control

Cc1c(N)nc([C@H](CC(N)=O)NC[C@H](N)C(N)=O)nc1C(=O)N[C@H](C(=O)N[C@H](C)[C@@H](O)[C@H](C)C(=O)N[C@H](C(=O)NCCc1nc(-c2nc(C(=O)NCCC[S+](C)C)cs2)cs1)[C@@H](C)O)C(OC1OC(CO)C(O)C(O)C1OC1OC(CO)C(O)C(OC(N)=O)C1O)c1cnc[nH]1 (stereo partly specified)
T/C (endpoint: mean survival time, dose: 4.0 mg/kg/injection, schedule: Q01DX009 (ip), vehicle: saline, higher = longer survival): 111 % of control
T/C (endpoint: mean survival time, dose: 8.0 mg/kg/injection, schedule: Q01DX009 (ip), vehicle: saline, higher = longer survival): 102 % of control
T/C (endpoint: mean survival time, dose: 12.0 mg/kg/injection, schedule: Q01DX009 (ip), vehicle: saline, higher = longer survival): 107 % of control
T/C (endpoint: median survival time, dose: 1.0 mg/kg/injection, schedule: Q01DX009 (ip), vehicle: water, higher = longer survival): 90 % of control
T/C (endpoint: median survival time, dose: 1.7 mg/kg/injection, schedule: Q01DX009 (ip), vehicle: water, higher = longer survival): 94 % of control
T/C (endpoint: median survival time, dose: 2.0 mg/kg/injection, schedule: Q01DX009 (ip), vehicle: saline, higher = longer survival): 107 % of control
T/C (endpoint: median survival time, dose: 2.0 mg/kg/injection, schedule: Q01DX009 (ip), vehicle: water, higher = longer survival): 112 % of control
T/C (endpoint: median survival time, dose: 2.9 mg/kg/injection, schedule: Q01DX009 (ip), vehicle: water, higher = longer survival): 94 % of control
T/C (endpoint: median survival time, dose: 3.12 mg/kg/injection, schedule: Q04DX003 (sc), vehicle: saline, higher = longer survival): 90 % of control and 92 % of control
T/C (endpoint: median survival time, dose: 4.0 mg/kg/injection, schedule: Q01DX009 (ip), vehicle: water, higher = longer survival): 94 % of control and 118 % of control
T/C (endpoint: median survival time, dose: 4.0 mg/kg/injection, schedule: Q04DX003 (ip), vehicle: saline, higher = longer survival): 96 % of control and 110 % of control
T/C (endpoint: median survival time, dose: 4.8 mg/kg/injection, schedule: Q01DX009 (ip), vehicle: water, higher = longer survival): 118 % of control
T/C (endpoint: median survival time, dose: 6.25 mg/kg/injection, schedule: Q04DX003 (sc), vehicle: saline, higher = longer survival): 96 % of control
T/C (endpoint: median survival time, dose: 8.0 mg/kg/injection, schedule: Q01DX009 (ip), vehicle: water, higher = longer survival): 102 % of control and 112 % of control
T/C (endpoint: median survival time, dose: 8.0 mg/kg/injection, schedule: Q04DX003 (ip), vehicle: saline, higher = longer survival): 96 % of control and 114 % of control
T/C (endpoint: median survival time, dose: 12.0 mg/kg/injection, schedule: Q01DX009 (ip), vehicle: saline, higher = longer survival): 100 % of control
T/C (endpoint: median survival time, dose: 12.5 mg/kg/injection, schedule: Q04DX003 (sc), vehicle: saline, higher = longer survival): 102 % of control and 108 % of control
T/C (endpoint: median survival time, dose: 16.0 mg/kg/injection, schedule: Q04DX003 (ip), vehicle: saline, higher = longer survival): 84 % of control and 112 % of control
T/C (endpoint: median survival time, dose: 22.2 mg/kg/injection, schedule: Q01DX009 (ip), vehicle: water, higher = longer survival): 82 % of control
T/C (endpoint: median survival time, dose: 25.0 mg/kg/injection, schedule: Q04DX003 (sc), vehicle: saline, higher = longer survival): 98 % of control
T/C (endpoint: median survival time, dose: 32.0 mg/kg/injection, schedule: Q04DX003 (ip), vehicle: saline, higher = longer survival): 50 % of control and 108 % of control
T/C (endpoint: median survival time, dose: 50.0 mg/kg/injection, schedule: Q04DX003 (sc), vehicle: saline, higher = longer survival): 117 % of control and 118 % of control
T/C (endpoint: median survival time, dose: 64.0 mg/kg/injection, schedule: Q04DX003 (ip), vehicle: saline, higher = longer survival): 37 % of control and 97 % of control
T/C (endpoint: median survival time, dose: 100.0 mg/kg/injection, schedule: Q04DX003 (sc), vehicle: saline, higher = longer survival): 116 % of control and 124 % of control
T/C (endpoint: median tumor weight (est.), dose: 2.0 mg/kg/injection, schedule: Q01DX009 (ip), vehicle: saline, higher = larger tumour): 71 % of control
T/C (endpoint: median tumor weight (est.), dose: 2.0 mg/kg/injection, schedule: Q01DX009 (ip), vehicle: water, higher = larger tumour): 34 % of control
T/C (endpoint: median tumor weight (est.), dose: 4.0 mg/kg/injection, schedule: Q01DX009 (ip), vehicle: saline, higher = larger tumour): 77 % of control
T/C (endpoint: median tumor weight (est.), dose: 4.0 mg/kg/injection, schedule: Q01DX009 (ip), vehicle: water, higher = larger tumour): 24 % of control
T/C (endpoint: median tumor weight (est.), dose: 8.0 mg/kg/injection, schedule: Q01DX009 (ip), vehicle: saline, higher = larger tumour): 34 % of control
T/C (endpoint: median tumor weight (est.), dose: 8.0 mg/kg/injection, schedule: Q01DX009 (ip), vehicle: water, higher = larger tumour): 8 % of control
T/C (endpoint: median tumor weight (est.), dose: 16.0 mg/kg/injection, schedule: Q01DX009 (ip), vehicle: saline, higher = larger tumour): 26 % of control

CC1CCC2(OC1)OC1C(O)C3C4CCC5CC(OC6OC(CO)C(OC7OC(CO)C(O)C(OC8OCC(O)C(O)C8O)C7OC7OC(CO)C(O)C(OC8OC(CO)C(O)C(O)C8O)C7O)C(O)C6O)C(O)CC5(C)C4CCC3(C)C1C2C (stereo unspecified)
T/C (endpoint: mean tumor weight, dose: 6.2 mg/kg/injection, schedule: Q01DX011 (ip), vehicle: carboxymethylcellulose (CMC), higher = larger tumour): 47 % of control and 58 % of control
T/C (endpoint: mean tumor weight, dose: 12.5 mg/kg/injection, schedule: Q01DX011 (ip), vehicle: carboxymethylcellulose (CMC), higher = larger tumour): 93 % of control and 98 % of control
T/C [2]: 115 % of control
T/C [3]: 122 % of control
T/C (endpoint: median survival time, dose: 5.0 mg/kg/injection, schedule: Q01DX009 (ip), vehicle: saline, higher = longer survival): 111 % of control

CC1(C)OCC(CO)(Nc2nc(N3CC3)nc(N3CC3)n2)CO1
T/C (endpoint: median survival time, dose: 0.62 mg/kg/injection, schedule: Q01DX009 (ip), vehicle: saline, higher = longer survival): 100 % of control and 119 % of control
T/C [2]: 115 % of control and 116 % of control
T/C [3]: 112 % of control

CN(N=O)C(=O)NC1CCOCC1
T/C (endpoint: median survival time, dose: 475.0 mg/kg/injection, schedule: Q01DX001 (ip), vehicle: saline with Tween-80, higher = longer survival): 108 % of control

CC(C)([NH-])CO.CC(C)([NH-])CO.[Cl][Cd][Cl]
T/C (endpoint: mean tumor weight, dose: 1.0 mg/kg/injection, schedule: Q01DX011 (ip), vehicle: other, higher = larger tumour): 122 % of control
T/C (endpoint: mean tumor weight, dose: 2.0 mg/kg/injection, schedule: Q01DX011 (ip), vehicle: other, higher = larger tumour): 77 % of control
T/C (endpoint: mean tumor weight, dose: 4.0 mg/kg/injection, schedule: Q01DX011 (ip), vehicle: other, higher = larger tumour): 75 % of control
T/C (endpoint: mean tumor weight, dose: 8.0 mg/kg/injection, schedule: Q01DX011 (ip), vehicle: other, higher = larger tumour): 97 % of control

CCC(C)C1NC(=O)C(NC(=O)c2c3nc4c(C(=O)NC5C(=O)NC(C(C)CC)C(=O)N6CCCC6C(=O)N(C)CC(=O)N(C)C(C(C)C)C(=O)OC5C)ccc(C)c4oc-3c(C)c(=O)c2N)C(C)OC(=O)C(C(C)C)N(C)C(=O)CN(C)C(=O)C2CCCN2C1=O (stereo unspecified) (I: TIP[Sar][NMeV] / II: TIP[Sar][NMeV]; ester I:1-I:C, II:1-II:C; linker I:N-II:N via Actinocin(1to9); configuration not given here)
T/C (endpoint: median survival time, dose: 12.5 micrograms/kg/injection, schedule: Q01DX009 (ip), vehicle: water, higher = longer survival): 112 % of control
T/C (endpoint: median survival time, dose: 25.0 micrograms/kg/injection, schedule: Q01DX009 (ip), vehicle: water, higher = longer survival): 109 % of control
T/C (endpoint: median survival time, dose: 50.0 micrograms/kg/injection, schedule: Q01DX009 (ip), vehicle: water, higher = longer survival): 115 % of control
T/C (endpoint: median survival time, dose: 75.0 micrograms/kg/injection, schedule: Q04DX003 (ip), vehicle: water, higher = longer survival): 105 % of control
T/C (endpoint: median survival time, dose: 150.0 micrograms/kg/injection, schedule: Q04DX003 (ip), vehicle: water, higher = longer survival): 111 % of control
T/C (endpoint: median survival time, dose: 300.0 micrograms/kg/injection, schedule: Q04DX003 (ip), vehicle: water, higher = longer survival): 116 % of control
